Laboratory results reported in ChEMBL document CHEMBL3988442, “University of Dundee, Small-Polar-MMV Screening Library” (2021).
Values joined by “and” are separate entries in the source; they are usually repeats but may differ in a detail not shown here. Identical values can stand only once.

Key:
[1] = biological target: T1, Coenzyme A biosynthesis bifunctional protein CoaBC (Mycobacterium tuberculosis (strain ATCC 25618 / H37Rv), UniProt P9WNZ1); assay: Biomol Green assay for MtCoaBC inhibitor, OD650 read; type: functional
T1 sequence (P9WNZ1 whole entry): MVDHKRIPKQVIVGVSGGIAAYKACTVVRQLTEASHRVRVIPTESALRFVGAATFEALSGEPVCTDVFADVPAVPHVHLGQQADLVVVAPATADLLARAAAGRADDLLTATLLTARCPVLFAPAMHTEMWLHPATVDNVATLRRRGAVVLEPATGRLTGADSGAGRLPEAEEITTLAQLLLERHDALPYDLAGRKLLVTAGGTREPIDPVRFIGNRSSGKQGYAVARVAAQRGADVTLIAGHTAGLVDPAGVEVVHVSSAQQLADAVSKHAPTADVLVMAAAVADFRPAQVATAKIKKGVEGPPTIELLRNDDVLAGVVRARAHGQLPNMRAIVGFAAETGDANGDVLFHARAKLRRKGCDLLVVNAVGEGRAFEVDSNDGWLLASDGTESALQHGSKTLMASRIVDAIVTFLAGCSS

Tryptophan--tRNA ligase = Tryptophan--tRNA ligase (Mycobacterium tuberculosis (strain ATCC 25618 / H37Rv), UniProt P9WFT3); assay: Biochemical assay for Mt-TrpRS; type: functional
Sequence of Tryptophan--tRNA ligase (P9WFT3 whole entry): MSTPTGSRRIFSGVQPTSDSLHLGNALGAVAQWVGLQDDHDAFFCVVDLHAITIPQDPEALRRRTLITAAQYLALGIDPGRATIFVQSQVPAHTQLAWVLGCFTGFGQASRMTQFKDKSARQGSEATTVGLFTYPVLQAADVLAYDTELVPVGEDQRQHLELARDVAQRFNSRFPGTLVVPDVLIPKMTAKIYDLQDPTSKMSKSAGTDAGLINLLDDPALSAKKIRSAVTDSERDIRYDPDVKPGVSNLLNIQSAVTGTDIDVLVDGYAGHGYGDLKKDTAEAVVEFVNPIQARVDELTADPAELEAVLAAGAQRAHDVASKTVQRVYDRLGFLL

Plasmodium falciparum = assay: Calibr Malaria Delayed Death Assay SOP; type: functional, organism-based
Histidine--tRNA ligase = biological target: T2, Histidine--tRNA ligase (Leishmania infantum, UniProt A4I591); assay: Leishmania infantum Histidine tRNA synthetase (LdHisRS); type: functional
T2 sequence (A4I591 whole entry): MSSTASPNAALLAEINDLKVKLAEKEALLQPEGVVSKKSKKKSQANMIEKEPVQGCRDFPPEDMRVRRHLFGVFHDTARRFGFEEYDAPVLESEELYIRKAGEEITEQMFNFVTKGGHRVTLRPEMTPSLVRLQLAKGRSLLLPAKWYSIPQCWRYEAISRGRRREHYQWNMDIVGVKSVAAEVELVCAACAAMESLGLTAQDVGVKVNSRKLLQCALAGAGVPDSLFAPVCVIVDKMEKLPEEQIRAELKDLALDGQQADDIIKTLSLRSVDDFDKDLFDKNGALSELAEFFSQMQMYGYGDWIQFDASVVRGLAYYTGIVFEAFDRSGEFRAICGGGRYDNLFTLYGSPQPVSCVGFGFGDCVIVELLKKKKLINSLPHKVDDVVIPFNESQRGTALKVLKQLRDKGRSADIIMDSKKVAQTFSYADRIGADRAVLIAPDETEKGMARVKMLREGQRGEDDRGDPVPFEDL

ClpP1P2 = ClpP1P2 (Mycobacterium tuberculosis (strain ATCC 25618 / H37Rv), UniProt P9WPC3+P9WPC5); assay: in vitro assay to detect presence of AMC directly proportional to the activity of ClpP1P2. GHDDI collaboration.; type: functional
Sequence of ClpP1P2 (P9WPC5 whole entry): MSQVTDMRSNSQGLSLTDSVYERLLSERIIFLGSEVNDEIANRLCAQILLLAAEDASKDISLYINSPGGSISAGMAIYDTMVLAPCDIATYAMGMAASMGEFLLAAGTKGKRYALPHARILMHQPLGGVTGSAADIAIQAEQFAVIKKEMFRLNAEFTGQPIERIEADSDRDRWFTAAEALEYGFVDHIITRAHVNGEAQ
Sequence of ClpP1P2 (P9WPC3 whole entry): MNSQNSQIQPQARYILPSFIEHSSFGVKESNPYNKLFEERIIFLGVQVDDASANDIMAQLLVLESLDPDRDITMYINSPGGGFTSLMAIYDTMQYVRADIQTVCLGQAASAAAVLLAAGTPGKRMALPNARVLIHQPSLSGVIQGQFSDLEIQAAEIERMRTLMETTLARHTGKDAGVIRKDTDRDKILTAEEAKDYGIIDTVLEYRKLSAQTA

Lysine--tRNA ligase = Lysine--tRNA ligase (Plasmodium falciparum (isolate 3D7), UniProt Q8IDJ8); assay: Pf-KRS-1 (Lysyl-RNA Synthetase-1, KRS-1, cytosolic KRS) from Plasmodium falciparum. Inhibitor assay, 384 well plate, luminescence read.; type: functional
Sequence of Lysine--tRNA ligase (Q8IDJ8 whole entry): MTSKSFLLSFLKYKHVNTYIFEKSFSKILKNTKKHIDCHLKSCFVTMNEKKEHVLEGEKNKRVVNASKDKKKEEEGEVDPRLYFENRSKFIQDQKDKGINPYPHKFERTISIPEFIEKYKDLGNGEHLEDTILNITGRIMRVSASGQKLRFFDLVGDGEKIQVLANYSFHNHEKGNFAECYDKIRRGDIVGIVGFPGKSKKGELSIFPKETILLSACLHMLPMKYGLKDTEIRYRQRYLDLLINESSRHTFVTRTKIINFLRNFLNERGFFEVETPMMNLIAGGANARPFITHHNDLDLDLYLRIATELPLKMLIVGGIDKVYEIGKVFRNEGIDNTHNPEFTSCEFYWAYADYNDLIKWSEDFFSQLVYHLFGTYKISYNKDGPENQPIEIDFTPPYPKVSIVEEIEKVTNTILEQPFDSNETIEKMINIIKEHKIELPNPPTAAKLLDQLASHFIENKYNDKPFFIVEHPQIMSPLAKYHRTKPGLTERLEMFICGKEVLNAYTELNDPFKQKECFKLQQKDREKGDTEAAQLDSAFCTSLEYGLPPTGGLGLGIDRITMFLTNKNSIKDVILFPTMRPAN

Leishmania donovani = assay: Leishmania intramacrophage assay; type: functional, organism-based; details: Leishmania donovani

Row | SMILES | IC50 [1] [µM] | further results
1 | Cc1cnn(CC2CCCN2Cc2nnc(C)o2)c1 (stereo not given) | > 30.2 | 
2 | COc1cccc(N2CCC(CNCc3cccc(C#N)c3)C2)c1 (stereo not given) | > 30.2 | 
3 | COc1ccccc1N1CCC(CNCc2ccc(C#N)cc2)C1 (stereo not given) | > 30.2 | 
4 | Cc1cnn(CC2CCCN2Cc2nnc(-c3ccccc3)o2)c1 (stereo not given) | > 30.2 | 
5 | CC(C(=O)Nc1ccc(N2CCCCC2)nc1)n1cncn1 (stereo not given) | > 30.2 | 
6 | Cc1nn(C)c(Cl)c1C1CCCN1C(=O)c1ccncc1 (stereo not given) | > 30.2 | 
7 | CC(NCc1ccccc1Cl)c1ccc2[nH]c(=O)[nH]c2c1 (stereo not given) | > 30.2 | 
8 | Cc1nn(CCO)c(C)c1CNCc1cccnc1N(C)C | > 30.2 | 
9 | Cc1cccc(NC2CCN(C(=O)Nc3ccccn3)CC2)n1 | > 30.2 | 
10 | Cc1cccc(NC2CCN(C(=O)Nc3cn[nH]c3)CC2)n1 | > 30.2 | 
11 | CN(Cc1ccc(F)cc1)C(=O)NCc1nnc2n1CCC2 | > 30.2 | 
12 | CCc1nccn1CC1CCCN1S(=O)(=O)Cc1ccccc1 (stereo not given) | > 30.2 | 
13 | COc1ccccc1CNC(=O)N1CCN(Cc2cc(C)on2)CC1 | > 30.2 | 
14 | c1ccc(-c2nc(CN3CCCC3Cn3cncn3)co2)cc1 (stereo not given) | > 30.2 | 
15 | Fc1ccc(-c2nc(CN3CCCCC3Cn3cncn3)co2)cc1 (stereo not given) | > 30.2 | 
16 | Fc1cccc(-c2nc(CN3CCCC(Cn4cncn4)C3)co2)c1 (stereo not given) | > 30.2 | 
17 | Cc1nn(C)c(C)c1C1CCCN1C(=O)c1cnc2onc(C)c2c1 (stereo not given) | > 30.2 | 
18 | Cc1nc(C2CCCN(C(=O)c3ccc(Cl)cn3)C2)no1 (stereo not given) | > 30.2 | 
19 | c1ccc(Cn2cc(CNCC3CNc4ccnn4C3)cn2)cc1 (stereo not given) | > 30.2 | IC50 (Tryptophan--tRNA ligase): > 195 µM
20 | CC(=O)Nc1nc(C(=O)N2CCCC2c2noc(C3CC3)n2)cs1 (stereo not given) | > 30.2 | 
21 | O=C(c1cc2cc(F)ccc2[nH]1)N1CCCCC1Cn1cccn1 (stereo not given) | > 30.2 | 

Row | SMILES | IC50 [1] [µM] | further results
22 | COc1ccc(C(O)CN2CC(n3nc(C)cc3C)C2)cc1 (stereo not given) | > 30.2 | pIC50 (Plasmodium falciparum): 5.759; IC50 (Plasmodium falciparum; Plasmodium falciparum): 1.76 µM
23 | Cc1cc(NC(=O)CN2CCc3cnc(C(C)C)nc3C2)on1 | > 30.2 | 
24 | Cc1cc(CN2CCOC(CNc3cccnn3)C2)no1 (stereo not given) | > 30.2 | 
25 | Cc1ncc2c(n1)CCN(CCCc1nc3ccccc3o1)C2 | > 50.1 | 
26 | Cc1nn2cccnc2c1C(=O)N1CCCC(n2ccnc2C)C1 (stereo not given) | > 30.2 | 
27 | Cc1ccc(NC2CCN(C(=O)c3cccc4[nH]ncc34)CC2)nn1 | > 30.2 | 
28 | Cc1nc(C2CCCN(C(=O)c3c(C)nn4cccnc34)C2)no1 (stereo not given) | > 30.2 | 
29 | CC1CCN(CCNC(=O)c2ccn(-c3ccc(F)cc3)n2)CC1 | > 30.2 | 
30 | CC(C)COCC(NC(=O)c1cnccn1)c1ccco1 (stereo not given) | > 30.2 | 
31 | Cc1ccc(OCCC(=O)N2CCOCC2c2ncon2)cc1C (stereo not given) | > 30.2 | 
32 | Cc1cc(C2CCCN2CCC(=O)N2CCc3sccc3C2)no1 (stereo not given) | > 30.2 | 
33 | Cc1ccc(C)n1-c1ccc(C(=O)NCCNc2ncccn2)cc1 | > 30.2 | IC50 (Histidine--tRNA ligase): > 100 µM
34 | CS(=O)(=O)NC1CCN(C(=O)NCCc2ccccc2F)CC1 | > 30.2 | 
35 | Cc1nccn1-c1cccc(C2CCCN2)n1 (stereo not given) | > 30.2 | IC50 (ClpP1P2): > 100 µM
36 | COc1c(C)cc(CNCc2ccnc(N3CCOCC3)c2)cc1C | > 30.2 | 
37 | O=S(=O)(NC1CCC12CCN(CC1CCOCC1)CC2)c1ccccc1 (stereo not given) |  | IC50 (Lysine--tRNA ligase): > 50.1 µM
38 | CN(C)Cc1cnc2n1CCN(C(=O)Cc1ccc(F)cc1)CC2 |  | IC50 (Lysine--tRNA ligase): > 50.1 µM
39 | O=C(CC1CCCC1)N1CC[C@H]2[C@H]1CCN2c1nncs1 |  | IC50 (Lysine--tRNA ligase): > 50.1 µM
40 | Cc1ccc(CN2C[C@@H]3CCN(Cc4ccncc4)C(=O)[C@H]3C2)s1 | > 30.2 | IC50 (ClpP1P2): 34.3 µM
41 | O=C(O)CN1CCC(F)(F)C2(CCN(c3ccccc3)C2)C1 (stereo not given) | > 30.2 | IC50 (Leishmania donovani): > 50.1 µM; IC50 (Histidine--tRNA ligase): 43.6 µM and 39.5 µM
42 | COc1c(-c2ccc(O)cc2)oc2cc(O)cc(O)c2c1=O [ISOKAEMPFERIDE] | > 30.2 | 
